Results reported in US7041821B2, “Synthetic molecules for labeling histidine-rich proteins” (The Regents of the University of California, priority 2003, dated 2006).
Read-outs that look alike come from different tables or passages of the source.

Tests used:
his6-CFP = settings: +Zn2+ + his6-CFP: 1 μM dye, pH 7.2, 100 μM ZnCl2 and 1 μM his6-CFP
Experimental: Excitation (ex), emission (em) maxima (in nm) and fluorescence quantum yields (φ) of 1 μM dye in 100 mM KCl 10 mM MOPS pH 7.2 with 50 μM EDTA (—Zn^2+), 100 μM ZnCl2 (+Zn^2+) or 100 μM ZnCl2 and 1 μM his6-CFP (+Zn^2++his6-CFP).

[1] = test system: HEK293 cells expressing a His6-tagged test-protein
Text: A gene encoding the peptide […] (His6-) was created by the polymerase chain reaction (PCR), using pRSETB template (Invitrogen). BglII and SacII restriction sites were incorporated at the 5′ and 3′ ends of the gene, by using the forward primer […] and reverse primer […]. For expression on the surface of mammalian cells, the gene was inserted into the pDisplay vector (Invitrogen) using the BglII and SacII restriction sites. This vector supplies the necessary sequences for entry into the secretory pathway and anchoring to the outer face of the plasma membrane.
HEK 293 cells were plated onto sterilized glass cover slips on 2 cm dishes or 10 cm plates and grown to 50–100% confluency in DMEM supplemented with 10% FBS at 37° C. in 6% CO2. Cells were transfected with FUGENE-6 transfection reagent (Roche Molecular Biochemicals). After 24 to 48 h incubation at 37° C. in culture medium, the cells were washed once with Hanks' balanced salt solution buffer (HBSS). Then 2 mL of the staining solution (HEPES buffer with 1 μM free Zn^2+ (pH 7.4), ˜1–1.5 μM of compound (I) (DMSO stock)) was added to the cells. After 1 min, the cells were washed twice with HBSS and imaged. Imaging experiments were performed with excitation at 540 nm (25 nm bandwidth), emission at 595 nm (50 nm bandwidth), and dichroic mirror at 560 nm for the Zn-compound (I); and excitation at 420 nm (20 nm bandwidth), emission at 475 nm (40 nm bandwidth) and dichroic mirror at 450 nm for CFP.
(§1) A solution of Compound (I) in buffer containing 1 μM Zn^2+ was added extracellularly to intact HEK293 cells expressing a His6-tagged test-protein, targeted to the surface of the cell membrane.

poly-histidine peptide = test system: poly-histidine peptide
Experimental: as §1

[2] = remark: listed apart in the source
Experimental: Formation of the Zn-complex can be monitored by absorbance or fluorescence emission and excitation shifts. Aliquots of a dye stock solution in DMSO were added to 500 μL of buffers containing 10 nM, 100 nM, 1 μM or 10 μM free zinc (controlled by Ca^2+/Zn^2+ EGTA and 10 mM HEPES; see Walkup, G. K., Burdette, S. C., Lippard, S. J., and Tsien, R. Y., J. Am. Chem. Soc. 2000, 122, 5644–5645) or zinc free (10 mM HEPES, 1 mM EDTA buffer) solutions to yield approximately 1–1.5 μM dye solution (ε˜65,500 M^−1 cm^−1).

[3] = +Zn2+: 1 μM dye, pH 7.2, 100 μM ZnCl2
[4] = −Zn2+: 1 μM dye, 100 mM KCl 10 mM MOPS pH 7.2, 50 μM EDTA

Row | Emission maximum (em) (his6-CFP) [nm] | Excitation maximum (ex) (his6-CFP) [nm] | Fluorescence quantum yield (φ) (his6-CFP) | Emission maximum (em) [3] [nm] | Excitation maximum (ex) [3] [nm] | Fluorescence quantum yield (φ) [3] | Emission maximum (em) [4] [nm] | Excitation maximum (ex) [4] [nm] | Fluorescence quantum yield (φ) [4] | Compound | Speed of staining ([1]; intact HEK293 cells, 1 μM Zn2+) | Staining of non-transfected cells ([1]; neighboring non-transfected HEK293 cells, same staining) | Reversibility of staining ([1]; washing with EDTA solutions (FIG. 7)) | Staining of transfected cells ([1]; ~1–1.5 μM compound, 1 μM free Zn2+, added extracellularly, 1 min, washed) | Fluorescence anisotropy binding (poly-histidine peptide) | Extinction coefficient ε ([2]; dye solution in HEPES buffers) | Fluorescence quantum yield ([2]; virtually unchanged between 0 and 1 μM free Zn2+ (FIG. 2))
1 | 560 | 531 | 0.19 | 560 | 523 | 0.37 | 544 | 517 | 0.47 | 2′,7′-bis(2-dimethylaminoethanesulfonamido)-4′,5′-difluorofluorescein [Compound II] |  |  |  |  |  |  | 
2 | 570 | 545 | 0.08 | 566 | 533 | 0.35 | 547 | 525 | 0.60 | 2′,7′-bis(2-pyridylsulfonamido)-4′,5′-difluorofluorescein [Compound IV] |  |  |  |  |  |  | 

Row | Compound | Emission maximum (em) (his6-CFP) [nm] | Excitation maximum (ex) (his6-CFP) [nm] | Fluorescence quantum yield (φ) (his6-CFP) | Emission maximum (em) [3] [nm] | Excitation maximum (ex) [3] [nm] | Fluorescence quantum yield (φ) [3] | Emission maximum (em) [4] [nm] | Excitation maximum (ex) [4] [nm] | Fluorescence quantum yield (φ) [4] | Speed of staining ([1]; intact HEK293 cells, 1 μM Zn2+) | Staining of non-transfected cells ([1]; neighboring non-transfected HEK293 cells, same staining) | Reversibility of staining ([1]; washing with EDTA solutions (FIG. 7)) | Staining of transfected cells ([1]; ~1–1.5 μM compound, 1 μM free Zn2+, added extracellularly, 1 min, washed) | Fluorescence anisotropy binding (poly-histidine peptide) | Extinction coefficient ε ([2]; dye solution in HEPES buffers) | Fluorescence quantum yield ([2]; virtually unchanged between 0 and 1 μM free Zn2+ (FIG. 2))
3 | Cc1c(O)c(NS(=O)(=O)c2ccccn2)cc2c1Oc1c(cc(NS(=O)(=O)c3ccccn3)c(O)c1C)C21OC(=O)c2ccccc21 [Compound I, 2′,7′-Bis(pyridyl-2-sulfonamido)-4′,5′-dimethylfluorescein] | 560 | 536 | 0.09 | 557 | 523 | 0.34 | 545 | 518 | 0.40 | stains cells virtually instantaneously | no staining | staining is reversible by washing with EDTA solutions | transfected cells clearly showed membrane specific fluorescent staining | clearly indicate binding to a poly-histidine peptide | ~65,500 M^−1 cm^−1 | ~0.4
